# Where a SMILES comes first, the peptide text is derived from it. Bridges are numbered along the chain shown (N, C = ends). Roman numbers before positions name the chains, in order. The star is where a group is joined. Myristoyl = CCCCCCCCCCCCCC(=O)*; Lauroyl = CCCCCCCCCCCC(=O)*
# What was measured:
# Assay type in all cases: cell-based
# [1] = test system: Staphylococcus aureus ATCC 25923; conditions: ATCC 25923, 24 h
# Procedure: (§1) The biofilms of bacteria associated with the biofilm-related infections were cultured on 96-well flat bottom PS and on CL placed in 24-well plates. The bacteria at initial inoculums of 5 × 10^8 CFU/mL in MHB II were added to the plates and incubated at 37 °C under aerobic conditions. After 24 h of incubation, all cultures were rinsed three times with PBS and fresh medium was added. Subsequently, the obtained biofilm cultures were exposed to solutions of antimicrobials applied at graded concentrations ranging from 1 to 512 μg/mL for 24 h at 37 °C. The anti-biofilm activity of antimicrobials was visualized by resazurin (final concentration per sample = 0.005%) in the same way as in the MBFIC assay. All experiments were performed in triplicate and included growth controls (positive control: bacterial suspension without antimicrobials) and sterility controls (negative controls: sterile MBH II medium).
# [2] = test system: Enterococcus faecalis ATCC 29212; conditions: ATCC 29212, 24 h
# Procedure: as §1
# [3] = test system: Proteus mirabilis PCM 543; conditions: PCM 543, 24 h
# Procedure: as §1
# [4] = test system: Escherichia coli ATCC 25922; conditions: ATCC 25922, 24 h
# Procedure: as §1
# [5] = test system: Pseudomonas aeruginosa ATCC 9027; conditions: ATCC 9027, 24 h
# Procedure: as §1
# [6] = test system: Staphylococcus epidermidis ATCC 14990; conditions: ATCC 14990, 24 h
# Procedure: as §1
# [7] = test system: Staphylococcus aureus ATCC 25923; conditions: ATCC 25923, 18 h
# Procedure: (§2) The reference strains of gram-positive and gram-negative bacteria (Table 2) were obtained from the Polish Collection of Microorganisms (Polish Academy of Science, Wroclaw, Poland). The microorganisms were cultured in Muller Hinton Broth II (MHB II, Biocorp, Warsaw, Poland), overnight, at 37 °C. The MICs of synthetic lipopeptides and conventional antimicrobials were determined using the broth microdilution method according to the Clinical and Laboratory Standard Institute (CLSI) guidelines on reference strains. […] The PS were incubated under aerobic conditions at 37 °C for 18 h. The MIC (μg/mL) was assumed as the lowest concentration of the compound that inhibited the growth of the microorganisms. All experiments were performed in triplicate and included the growth and sterility controls.
# [8] = test system: Enterococcus faecalis ATCC 29212; conditions: ATCC 29212, 18 h
# Procedure: as §2
# [9] = test system: Escherichia coli ATCC 25922; conditions: ATCC 25922, 18 h
# Procedure: as §2
# [10] = test system: Pseudomonas aeruginosa ATCC 9027; conditions: ATCC 9027, 18 h
# Procedure: as §2
# [11] = test system: Staphylococcus epidermidis ATCC 14990; conditions: ATCC 14990, 18 h
# Procedure: as §2
# [12] = test system: Staphylococcus aureus ATCC 25923; assay: MBFIC assay (biofilm formation inhibition, resazurin); conditions: for MBFIC S. aureus, CL: contact lenses (CL, Etafilcon A hydrogel) in 24-well plates; for MBFIC S. aureus, CL / MBFIC S. aureus, PS: ca. 5 × 10^8 CFU/mL in MHB II, 37 °C, 18 h, resazurin, visual, triplicate; for MBFIC S. aureus, PS: polystyrene plates (PS), 96-well
# Procedure: (§3) To determine the inhibitory effect of antimicrobials on the formation of biofilm on hydrophobic surfaces, the bacterial suspensions of strains (initial inoculum of ca. 5 × 10^8 CFU/mL in MHB II medium supplemented with antimicrobials) were cultured on 96-well PS at 37 °C for 18 h under aerobic conditions. After incubation, the suspensions were aspirated, and the wells were rinsed three times with sterile phosphate buffer PBS (AppliChem, Darmstadt, Germany) in order to remove the planktonic cells. Resazurin (final concentration per sample = 0.005%) was applied as a cell viability reagent for reading the results. In contact with the living cells, the dye is metabolized by bacterial dehydrogenases, resulting in a reduction of blue resazurin to pink resorufin. All assays were performed in triplicate and included the growth controls (positive controls: bacterial suspensions without antimicrobials) and the sterility controls (negative controls: a sterile MBH medium). After 1h of incubation, a visual evaluation of results was made. […] In a preliminary study, it was established that the application of lipopeptides at a concentration found active from visual evaluation caused the reduction of bacterial metabolism to approximately 10% (or less) of the positive control once the results were evaluated with a spectrophotometer. After 1 h of incubation with the dye, absorbance was measured at 570 and 600 nm using a microplate reader (Thermo Fisher Scientific, Waltham, MA, USA). The metabolic activity of bacteria in the samples was measured according to the formula presented in the previous paper.
# (§4) The MBFIC assay with CL was applied in order to access the influence of lipopeptides on the biofilm formation on hydrogel surfaces. The entire sterile CL (1-Day Acuvue Moist, containing Etafilcon A., purchased from Johnson & Johnson (Vision Care, Jacksonsville, FL, USA), were placed in 24-well PS (Orange Scientific, Braine-l’ Alleud, Belgium) and the MBFICs were determined according to the above protocol.
# [13] = test system: Enterococcus faecalis ATCC 29212; assay: as above; conditions: ca. 5 × 10^8 CFU/mL in MHB II, 37 °C, 18 h, visual, triplicate; for MBFIC E. faecalis, CL: contact lenses (CL, Etafilcon A hydrogel) in 24-well plates; for MBFIC E. faecalis, PS: polystyrene plates (PS), 96-well
# Procedure: as §3, §4
# [14] = test system: Proteus mirabilis PCM 543; assay: as above; conditions: ca. 5 × 10^8 CFU/mL in MHB II, 37 °C, 18 h, visual, triplicate; for MBFIC P. mirabilis, CL: contact lenses (CL, Etafilcon A hydrogel) in 24-well plates; for MBFIC P. mirabilis, PS: polystyrene plates (PS), 96-well
# Procedure: as §3, §4
# [15] = test system: Escherichia coli ATCC 25922; assay: as above; conditions: ca. 5 × 10^8 CFU/mL in MHB II, 37 °C, 18 h, visual, triplicate; for MBFIC E. coli, CL: contact lenses (CL, Etafilcon A hydrogel) in 24-well plates; for MBFIC E. coli, PS: polystyrene plates (PS), 96-well
# Procedure: as §3, §4
# [16] = test system: Pseudomonas aeruginosa ATCC 9027; assay: as above; conditions: ca. 5 × 10^8 CFU/mL in MHB II, 37 °C, 18 h, visual, triplicate; for MBFIC P. aeruginosa, CL: contact lenses (CL, Etafilcon A hydrogel) in 24-well plates; for MBFIC P. aeruginosa, PS: polystyrene plates (PS), 96-well
# Procedure: as §3, §4
# [17] = test system: Staphylococcus epidermidis ATCC 14990; assay: as above; conditions: for MBFIC S. epidermidis, CL: contact lenses (CL, Etafilcon A hydrogel) in 24-well plates; for MBFIC S. epidermidis, CL / MBFIC S. epidermidis, PS: ca. 5 × 10^8 CFU/mL in MHB II, 37 °C, 18 h, resazurin, visual, triplicate; for MBFIC S. epidermidis, PS: polystyrene plates (PS), 96-well
# Procedure: as §3, §4
# [18] = test system: Proteus mirabilis PCM 543; conditions: PCM 543, 18 h
# Procedure: as §2
SMILES,"MBEC S. aureus, CL [1]","MBEC E. faecalis, CL [2]","MBEC P. mirabilis, CL [3]","MBEC E. coli, CL [4]","MBEC P. aeruginosa, CL [5]","MBEC S. epidermidis, CL [6] [µg/mL]",MIC S. aureus [7] [µg/mL],MIC E. faecalis [8] [µg/mL],MIC E. coli [9] [µg/mL],MIC P. aeruginosa [10] [µg/mL],MIC S. epidermidis [11] [µg/mL],"MBFIC S. aureus, CL [12]","MBFIC S. aureus, PS [12]","MBFIC E. faecalis, CL [13] [µg/mL]","MBFIC E. faecalis, PS [13] [µg/mL]","MBFIC P. mirabilis, CL [14]","MBFIC P. mirabilis, PS [14]","MBFIC E. coli, CL [15]","MBFIC E. coli, PS [15]","MBFIC P. aeruginosa, CL [16]",other results
"CCCCCCCCCCCC(=O)N[C@@H](CCCCN)C(=O)N[C@@H](CCCCN)C(=O)N[C@@H](CSSC[C@H](NC(=O)[C@H](CCCCN)NC(=O)[C@H](CCCCN)NC(=O)CCCCCCCCCCC)C(N)=O)C(N)=O [Lipopeptide 1, C12-KKC-NH2] (I: Lauroyl-Lys-Lys-Cys-NH2 / II: Lauroyl-Lys-Lys-Cys-NH2; disulfide I:3-II:3)",256 µg/mL,128 µg/mL,>512/>512 μg/mL,256/256 μg/mL,256 µg/mL,128,8,4,16,32,2,32/32 μg/mL,32/32 μg/mL,64,16,>512/>512 μg/mL,>512/>512 μg/mL,128/128 μg/mL,128/128 μg/mL,128 µg/mL,"MBFIC P. aeruginosa, PS [16]: 512 µg/mL; MBFIC S. epidermidis, CL [17]: 16 µg/mL; MBFIC S. epidermidis, PS [17]: 8 µg/mL; concentrations inhibiting formation of SE biofilm (MBFIC range) ([17]; range over PS and CL): 8 to 16 µg/mL"
"CCCCCCCCCCCCCC(=O)N[C@@H](CCCCN)C(=O)N[C@@H](CCCCN)C(=O)N[C@@H](CSSC[C@H](NC(=O)[C@H](CCCCN)NC(=O)[C@H](CCCCN)NC(=O)CCCCCCCCCCCCC)C(N)=O)C(N)=O [Lipopeptide 3, C14-KKC-NH2] (I: Myristoyl-Lys-Lys-Cys-NH2 / II: Myristoyl-Lys-Lys-Cys-NH2; disulfide I:3-II:3)",128/128 μg/mL,256/256 μg/mL,512/>512 μg/mL,512/512 μg/mL,> 512 µg/mL,512,32,16,64,128,4,32 µg/mL,64 µg/mL,64,256,512/512 μg/mL,512/512 μg/mL,64 µg/mL,256 µg/mL,512/512 μg/mL,"MIC P. mirabilis [18]: 512 µg/mL; MBFIC P. aeruginosa, PS [16]: 512/512 μg/mL; MBFIC S. epidermidis, CL [17]: 32 µg/mL; MBFIC S. epidermidis, PS [17]: 64 µg/mL"
"CCCCCCCCCCCCCC(=O)N[C@@H](CCCCN)C(=O)N[C@@H](CCCNC(=N)N)C(N)=O [Lipopeptide 4, C14-KR-NH2] (Myristoyl-Lys-Arg-NH2)",512 µg/mL,256 µg/mL,>512/>512 μg/mL,256 µg/mL,>512/>512 μg/mL,32,32,32,32,128,4,2 µg/mL,16 µg/mL,64,128,512/>512 μg/mL,512/>512 μg/mL,128/128 μg/mL,128/128 μg/mL,128 µg/mL,"MIC P. mirabilis [18]: 512 µg/mL; concentrations inhibiting formation of SA biofilm (MBFIC range) ([12]; range over PS and CL): 2 to 16 µg/mL; MBFIC P. aeruginosa, PS [16]: 256 µg/mL; MBFIC S. epidermidis, CL [17]: 32/32 μg/mL; MBFIC S. epidermidis, PS [17]: 32/32 μg/mL"

# — paper PMC6835763, “Influence of Short Cationic Lipopeptides with Fatty Acids of Different Chain Lengths on Bacterial Biofilms Formed on Polystyrene and Hydrogel Surfaces” (Pharmaceutics, 2019)
